Results: the METLIN SMRT retention time set (Domingo-Almenara et al. 2019)

Experiment: gradient 5% acetonitrile 3 min, to 50% in 2 min, to 85% in 15 min, held 3 min, 100 µL/min
Conditions: column: Zorbax Extend-C18 2.1 x 50 mm; eluents: water / acetonitrile, 0.1% formic acid
In short: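 Retention times come from adduct peaks that were picked computationally and then checked by hand. The standards, pure and pooled in mixtures of ~100 molecules, were run on a Zorbax Extend-C18 column (2.1 × 50 mm, 1.8 μm) at 100 μL/min with water and acetonitrile, each with 0.1% formic acid. Detection was by quadrupole time-of-flight mass spectrometry in positive and negative ionization mode, with a dead volume of 40 μL and a dwell volume of 900 μL.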

Row | RP-LC retention time [s] | Compound
1 | 710 | CCOc1cc(C2C(C(=O)N3CCCCC3)=C(C)NC3=C2C(=O)CCC3)ccc1OC(C)=O (stereo unspecified)
2 | 673 | O=C(Cn1cccc(-c2nc(-c3ccc(F)cc3)no2)c1=O)NCc1cccs1
3 | 922 | Cc1nc(C(=O)NCC2CCCCC2)c(C)o1
4 | 780 | Cc1csc(NC(=O)Cn2c(=O)n(C(C)C)c3ccc(-c4noc(C)n4)cc32)n1
5 | 699 | CCOC(=O)Cn1c2ccccc2n2nc(C)c(=O)nc12
6 | 621 | COCC(C)(O)CNC(=O)Cc1cccc(C)c1 (stereo unspecified)
7 | 714 | CCN1c2cc(F)ccc2C(=O)NC12CCN(C(=O)c1ccc(F)cc1)CC2
8 | 759 | Cc1ccc(C)c(C(=O)NCC(C)(O)c2ccccc2)c1 (stereo unspecified)
9 | 590 | O=C1Nc2ccccc2C(=O)N2CCCC12 (stereo unspecified)
10 | 1090 | Cc1cc2oc(C(=O)Nc3ccccc3[N+](=O)[O-])c(C)c2cc1C
11 | 775 | COc1cccc(CNC(=O)N2c3ccccc3CC2c2nc(C3CC3)no2)c1 (stereo unspecified)
12 | 923 | CCOc1ccccc1-c1noc(-c2nn(-c3ccc(C)cc3)ccc2=O)n1
13 | 1060 | Cc1ccc(-n2nc(N3CCCC(C(=O)Nc4cc(F)ccc4F)C3)ccc2=O)cc1Cl (stereo unspecified)
14 | 755 | CSc1ccc(-c2nc3nc(C)cc(C)n3c2Nc2ccccc2)cc1
15 | 690 | CN1CCn2cc(S(=O)(=O)Nc3ccc(F)cc3Cl)cc2C1=O
16 | 675 | CN(C)C(=O)c1ccc2c(c1)nnn2CCNC(=O)Nc1ccccc1Br
17 | 634 | COc1ccc(NC(C)=O)cc1NC(=O)C1CC(=O)N(c2n[nH]c3cccc(F)c23)C1 (stereo unspecified)
18 | 756 | O=C(NCc1csc(C2CCCN(C(=O)c3ccc(F)cc3Cl)C2)n1)C1CC1 (stereo unspecified)
19 | 688 | CCn1c(=O)c2cc(C(=O)NCc3ccc(N4CCC(C)CC4)cc3)nn2c2ccccc21
20 | 734 | COc1ccc(C2CC(=O)Nc3c(C(=O)O)cn(-c4ccc(F)cc4)c32)cc1OC (stereo unspecified)
21 | 780 | CCN1C(=O)c2cccnc2Sc2cc(C(=O)NCc3ccccc3)ccc21
22 | 678 | CCOC(=O)c1ccc(NC(=O)CSc2ccc(N3CCCC(C(=O)NC4CC4)C3)nn2)cc1 (stereo unspecified)
23 | 971 | CCCN1C(=O)COc2ccc(-c3csc(NC(=O)c4ccc(OC)c(OC)c4)n3)cc21

Row | RP-LC retention time [s] | Compound
24 | 680 | O=C(Cc1cc(-c2ccc3c(c2)OCCO3)on1)N1CCN(C(=O)c2ccco2)CC1
25 | 616 | CNC(=O)N1CCCN(S(C)(=O)=O)C(c2ccccc2)CC(=O)NCC1 (stereo unspecified)
26 | 747 | Cc1ccn2c(NC(=O)c3ccc4ccccc4c3)c(-c3ccccc3)nc2c1
27 | 587 | COc1ccc(S(=O)Cc2ccc(C(=O)NCCCN3CCCCC3)o2)cc1 (stereo unspecified)
28 | 979 | Cc1cc(-c2nnc(-c3ccc(F)cc3)o2)c(C)n1CC(=O)NC1CCCCC1
29 | 652 | Cn1ncc2c(NCc3ccccc3)nc(NCc3ccccc3)nc21
30 | 588 | COc1ccc(-c2cn3c(CC(=O)NCc4ccc(N(C)C)cc4)csc3n2)cc1OC
31 | 569 | CCN1CCN(S(=O)(=O)c2ccc(Cl)c(C(F)(F)F)c2)CC1
32 | 606 | O=C(Cc1noc2ccccc12)NCC1CCS(=O)(=O)C1 (stereo unspecified)
33 | 648 | CC(C)n1c(=O)sc2cc(S(=O)(=O)N3CCC(C(=O)NCCN4CCCC4)CC3)ccc21
34 | 827 | Cc1ccc(-c2nc3ncccn3c2Nc2ccc(Cl)cc2)cc1
35 | 1080 | Cc1ccc(-c2csc(NC(=O)C(C)(C)C)n2)cc1
36 | 618 | CCC1CCCCN1C(=O)CN1CCn2c1nc(C)c(C)c2=O (stereo unspecified)
37 | 582 | COc1cccc(CN2CCC3(CC2)CC(O)CCO3)c1OC (stereo unspecified)
38 | 762 | COc1ccc(CC(=O)NC2CCN(c3cc(-c4ccc(Cl)cc4)[nH]n3)C2)cc1 (stereo unspecified)
39 | 808 | COc1cccc(CNc2nccc(-n3nc(C)cc3C)n2)c1
40 | 709 | c1ccc(CNc2c(-c3ccccc3)nc3ncccn23)cc1
41 | 690 | O=C(Nc1ccc2nc3n(c(=O)c2c1)CCCC3)Nc1ccc(F)cc1F
42 | 552 | Cc1cc(C)nc(Nc2nc(C)c3cc4c(cc3n2)OCO4)n1
43 | 1130 | Cc1ccc(-c2noc(CN3N=NC4C(=O)N(c5ccc(Br)cc5)C(=O)C43)n2)cc1C (stereo unspecified)
44 | 601 | COc1ccc(F)cc1S(=O)(=O)N1CCC2(CCC(CN3CCN(C)CC3)O2)CC1 (stereo unspecified)
45 | 642 | CCC(=O)N1CCc2cc(C(=O)NCC3CCCO3)ccc21 (stereo unspecified)
46 | 727 | O=C(Cc1ccc(NC(=O)C2CCCC2)cc1)NCC(F)(F)F

Row | RP-LC retention time [s] | Compound
47 | 597 | Cc1ccc(C(=O)N2CCC3(CCC3N3CCOCC3)CC2)s1 (stereo unspecified)
48 | 634 | CCn1nc(C)c(CCNC(=O)C2CCCN(c3nn4c(=O)c5c(nc4s3)CCCC5)C2)c1C (stereo unspecified)
49 | 681 | Cc1sc2cc(C(=O)NC(C)(C)C)[nH]c2c1CN1CCCCC1
50 | 797 | Cc1cc(N2CCN(S(=O)(=O)c3cccc(F)c3)CC2)nc(NC2CCCCC2)n1
51 | 803 | CC1CCN(C(=O)C2CCN(S(=O)(=O)c3cc(C(=O)N4CCCCC4)n(C)c3)CC2)CC1
52 | 630 | COCCN(Cc1ccncc1)S(=O)(=O)c1ccc(-c2ccccc2)cc1
53 | 712 | CCN(CC)c1ccc(-c2nc3ncccn3c2NCc2ccccc2)cc1
54 | 860 | CCOc1ccc(OCC)c(NC(=O)CSc2cc(N3CCC(C(=O)NC4CC4)CC3)ncn2)c1
55 | 810 | CCOC(=O)C1CCN(S(=O)(=O)c2cccc3nsnc23)CC1
56 | 992 | CCN(CC)C(=O)C1CCN(c2nc3ccc(-c4cccs4)nc3s2)CC1
57 | 887 | COc1ccc(OC)c(-c2cn3ccn(-c4cccc(Cl)c4)c(=O)c3n2)c1
58 | 693 | CCOc1ccc(-c2csc3c(=O)n(Cc4ccncc4)cnc23)cc1OCC
59 | 677 | CC(C)C(NC(=O)c1ccco1)C(=O)NCc1nn(C)c2ccccc12 (stereo unspecified)
60 | 976 | O=c1ccc(-c2ccccc2)nn1Cc1nc(-c2ccccc2Cl)no1
61 | 677 | COc1ccc(-c2nc(CNC(=O)C3CCOC3)no2)cc1 (stereo unspecified)
62 | 950 | CS(=O)(=O)Nc1ccc(C2(C(=O)NCc3ccc(F)c(Cl)c3)CCCCC2)cc1
63 | 691 | CN1C(=O)NC(c2ccc(Cl)cc2)C2=C1CN(c1ccc(C(=O)O)cc1)C2=O (stereo unspecified)
64 | 635 | CCC(=O)N(C1CCOCC1)C1CCN(Cc2cccc(Br)c2)CC1
65 | 838 | COc1ccc(CC(=O)Nc2ccc(-c3nc(Cn4cccn4)c(C)o3)cc2)cc1
66 | 687 | Cc1cc(F)ccc1NC(=O)C1(C)Oc2cccnc2NC1=O (stereo unspecified)
67 | 862 | CCc1noc(NC(C)=O)c1-c1ccc(OC)c(S(=O)(=O)Nc2cccc(C(F)(F)F)c2)c1
68 | 566 | O=S(=O)(NCc1cccnc1)c1ccc(Cl)cc1
69 | 586 | CC(C)N1C[C@H](O)C[C@H]1c1nnc2n1CCN(C(=O)c1ccc3ccccc3n1)C2

Row | RP-LC retention time [s] | Compound
70 | 586 | COc1ccc2[nH]c(=O)c(CCC(=O)NCCCN3CCCCC3)cc2c1
71 | 770 | CCn1ccc(C(=O)NCC23CCC=C2N(CC2CC2)C(=O)CC3)n1 (stereo unspecified)
72 | 699 | CCc1ccccc1NC(=O)N(C)CC1CCOC1 (stereo unspecified)
73 | 602 | Cc1nc(Nc2ccc(Cl)cn2)sc1C(=O)NCCN(C)C
74 | 712 | O=C(NCc1csc(C2CCCN(C(=O)c3ccccc3)C2)n1)C1CCC1 (stereo unspecified)
75 | 716 | O=C(Cc1nnc(-c2ccc3ncccc3c2)o1)N1CCN(c2ccccc2)CC1
76 | 777 | O=C(NCC(=O)N1CCCc2ccccc21)c1ccccc1
77 | 766 | COC(=O)c1c(NCc2ccccc2Cl)c2ccccc2[nH]c1=O
78 | 762 | CCCNC(=O)C1CCCN(c2nc3ncn(CC(=O)Nc4ccc5c(c4)CCC5)c(=O)c3s2)C1 (stereo unspecified)
79 | 1060 | COc1ccc(-c2nnc3sc(COc4ccc(Br)cc4)nn23)cc1
80 | 566 | O=C1CCN(C(=O)c2ccco2)CCCC(CO)CCN1 (stereo unspecified)
81 | 1280 | CCCN1C(=O)COc2ccc(-c3noc(-c4ccc(N(C)C)cc4)n3)cc21
82 | 611 | CCCNC(=O)Cc1cn(CC)c2ncccc12
83 | 947 | Cc1cc(C)n(-c2nc(CC(=O)N3CCN(c4ccccc4)CC3)cs2)n1
84 | 676 | COc1ccc(C(=O)Nc2cccn3cnnc23)cc1F
85 | 623 | CCOc1ccc(S(=O)(=O)N2CCC(C(=O)NCc3cccnc3)CC2)cc1
86 | 1110 | C=CCN(Cc1nc(-c2ccc(C)cc2)no1)C(=O)Nc1cccc(C)c1
87 | 562 | CN1CCO[C@@H](C(=O)NC2CC2)[C@@H]1c1ccccc1
88 | 620 | O=C(c1ccc(F)c(Cl)c1)N1CCN(c2cc(-c3cccnc3)[nH]n2)CC1
89 | 563 | COc1cc(NC(=O)NCC(c2cccn2C)N2CCOCC2)cc(OC)c1 (stereo unspecified)
90 | 660 | COc1ccc(C2=NC3(CCCCC3)N(CC(=O)Nc3cc(OC)cc(OC)c3)C2=O)cc1

Row | Compound | RP-LC retention time [s]
91 | O=C1NC2C(=CC(O)C(O)C2O)c2cc3c(cc21)OCO3 (stereo unspecified) | 568
